Publication PMC12814185, “Receptor-Mediated Shuttling of a D‑Amino Acid Peptide Achieves High Nanomolar Cytosolic Concentrations” (Journal of the American Chemical Society, 2025)
Where a SMILES comes first, the peptide text is derived from it. Bridges are numbered along the chain shown (N, C = ends). Roman numbers before positions name the chains, in order. Triazole bridges read from a SMILES are 1,4-linked. Where no end group is shown, it is not given here. Side-chain parts run from the residue outwards. [ ]: non-standard residue; d: D form. The star is where a group is joined. X2 = CN1C(=C/C=C/C=C/C2=[N+](CCCCCC(=O)*)c3ccc(S(=O)(=O)[O-])cc3C2(C)C)C(C)(C)c2cc(S(=O)(=O)O)ccc21; X1 = CN1C(=CC=CC=CC2=[N+](CCCCCC(=O)*)c3ccc(S(=O)(=O)[O-])cc3C2(C)C)C(C)(C)c2cc(S(=O)(=O)O)ccc21; Lys(N3) = [N-]=[N+]=NCCCC[C@H](N)C(=O)O; Cit = NC(=O)NCCC[C@H](N)C(=O)O; d(hCys) = N[C@H](CCS)C(=O)O; PEG3 = NCCOCCOCCOCCC(=O)O; Pra = C#CC[C@H](N)C(=O)O

How the values were obtained:
HEK293_CMKLR1-eYFP cells = assay: Intracellular peptide stability (cleavage products in cell lysate, RP-HPLC, MALDI-ToF-MS); conditions: 1 μM peptide; for intact peptide in cell lysate: 15 min to 24 h, RP-HPLC λex 640 nm λem 670 nm; for cleavage site identified by MALDI-ToF-MS: PMIγ sequence remained intact
Procedure: 3 Quantification of Cy5-labeled peptides in the cytosol. (A) RP-HPLC (λex = 640 nm, λem = 670 nm) of cleavage products of Cy5-labeled peptides in the lysate of HEK293_CMKLR1-eYFP cells after incubation with 1 μM peptide for different durations. […] (B) Representative fluorescence correlation spectroscopy (FCS) autocorrelation curves of Cy5-labeled peptides measured in the cytosol of HEK293_CMKLR1-eYFP cells after 72 h of incubation. Measured curves were fitted with a model for hindered 3D diffusion and diffusion time t D and anomalous coefficient α were calculated from the fit. Autocorrelation data represent mean ± SD of up to 10 consecutive 5 s measurements in a single cell. (C) Intracellular concentrations of Cy5-labeled peptides after 72 h incubation calculated from the fitted autocorrelation curves obtained in HEK293_CMKLR1-eYFP, HMEC-1, and THP-1 cells. Each data point corresponds to FCS measurements from the cytosol of a single cell. Median with the interquartile range is shown. Data from three independent experiments. Statistical comparison by log-normal unpaired t test. ***p ≤ 0.001, **p ≤ 0.01, *p ≤ 0.05, ns – not significant. […] (D) Calculated diffusion coefficients from the fitted autocorrelation curves. Median with the interquartile range is shown.
Intracellular peptide stability
2 mL of 1 µM Cy5-labeled peptide in DMEM/Ham's F12 (1:1) + 15% FBS without phenol red were incubated on stably transfected HEK293_CMKLR1-eYFP cells in T25 cell culture flasks for 15 min to 24 h. The cells were washed with cold acidic wash (50 mM glycine, 100 mM sodium chloride, pH 3) and phosphate-buffered saline (PBS, Biowest) and harvested into 300 µl cold PBS with HaltTM Protease inhibitor cocktail (Thermo).
Suspended cells were homogenized with zirconia beads on a FastPrep-24 5G system (MP Biomedical) for 30 s and cellular proteins were precipitated from 600 µL ACN/ethanol (1:1) + 0.1% TFA at -20 °C for 2 h.
Cell lysates were then filtered through Costar Spin-X tubes, separated by RP-HPLC and isolated peaks were identified by MALDI-ToF MS (Ultraflextreme, Bruker). Experiments were performed at least twice and representative RP-HPLC chromatograms are shown.

[1] = target: T1, NanoLuc-MDM2 in HEK293_CMKLR1-eYFP cells (Homo sapiens, UniProt Q00987); assay: Intracellular Cy5-PMIγ/NanoLuc-MDM2 BRET, cells with CMKLR1; format: cell-based; conditions: for displacement from MDM2 by 10 μM nutlin-3a (kinetic BRET): 72 h internalization; for BRET between NanoLuc-MDM2 and Cy5-labeled peptide: CMKLR1-expressing cells, 1 or 10 μM; for receptor-specific BRET under uptake competition: coincubation with 30 μM unlabeled peptide 1
T1 construct: host or cells: HEK293 and HEK293_CMKLR1-eYFP
T1 sequence (Q00987 whole entry): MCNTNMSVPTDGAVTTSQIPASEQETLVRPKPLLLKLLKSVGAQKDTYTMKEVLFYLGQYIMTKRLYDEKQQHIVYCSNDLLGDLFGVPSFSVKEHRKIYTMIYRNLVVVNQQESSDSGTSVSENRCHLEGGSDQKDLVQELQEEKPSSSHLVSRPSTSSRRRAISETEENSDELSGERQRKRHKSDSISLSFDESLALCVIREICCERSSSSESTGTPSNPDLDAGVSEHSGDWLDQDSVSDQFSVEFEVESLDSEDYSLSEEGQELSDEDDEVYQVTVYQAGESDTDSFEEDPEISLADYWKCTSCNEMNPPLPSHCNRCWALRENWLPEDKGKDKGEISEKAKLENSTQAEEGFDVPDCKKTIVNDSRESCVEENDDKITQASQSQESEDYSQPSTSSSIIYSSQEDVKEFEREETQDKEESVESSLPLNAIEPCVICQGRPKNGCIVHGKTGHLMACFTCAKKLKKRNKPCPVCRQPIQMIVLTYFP
Procedure: (§1) 4 Intracellular bioluminescence resonance energy transfer (BRET) between NanoLuc-MDM2 and Cy5-labeled PMIγ in living cells. (A) Peptides were incubated on HEK293 and HEK293_CMKLR1-eYFP cells for 72 h before BRET was measured. To evaluate the receptor-specific effect, ΔBRET was calculated by subtracting netBRET of cells without CMKLR from netBRET from cells with CMKLR1. Mean ± SEM from three independent experiments performed in duplicate. […] (B) Calculated ΔBRET values after different incubation times of peptides on the cells. (C, D) Same as panels (A) and (B), but peptide uptake was competed by coincubation with 30 μM peptide 1 (N3-cC9). (E, F) Displacement of PMIγ peptides from MDM2 after 72 h internalization in a kinetic BRET measurement. After 3 min, 10 μM of the small molecule MDM2 antagonist Nutlin-3a was added and the loss of NanoLuc-MDM2/Cy5-PMIγ BRET was observed. Mean (bold line) ± SEM (dotted lines) from three independent experiments is shown. […]
Intracellular Cy5-PMIγ/NanoLuc-MDM2 bioluminescence resonance energy transfer […]
HEK293 and stably transfected HEK293_CMKLR1-eYFP cells were seeded at 15,000 cells per well into poly-ᴅ-lysine coated 96-well plates (white Nunc MicroWell, Thermo). The next day, cells in each well were transfected with 0.1 µg Transfection Carrier DNA (Promega) and 0.001 µg NanoLuc-MDM2 fusion vector (Promega) using Lipofectamine 3000 (Invitrogen) according to manufactures instructions. Cells were incubated overnight, washed, allowed to recover for 4 h, washed again and dilutions of the Cy5-labeled peptides were added to the cells and incubated for 24,48 or 72 h. For uptake competition experiments, 30 µM of the unlabeled peptide 1 (N3-cC9) were additionally added to each well. After the incubation, excess peptide was washed away thoroughly, and cells were incubated for 4 h before the cell culture medium was replaced by 50 µl Fluorobrite DMEM with Nano-Glo Live Cell Reagent (Promega). After 10 min incubation, luminescence was measured in a Spark multimode plate reader (Tecan), and BRET ratio was calculated by […]
dividing the Cy5-signal (670±30 nm) by the NanoLuc signal (450±20 nm). netBRET was calculated by subtracting the BRET ratio from cells which were incubated without peptide. To calculate the CMKLR1-specific effect, ΔBRET was calculated by subtracting the netBRET value obtained in cells without CMKLR1 from netBRET obtained in cells with CMKLR1. After the initial readout, a kinetic BRET displacement was performed with the same cells. For this, luminescence was measured every 22 s. After 3 min, 10 µM of the small molecule MDM2 antagonist Nutlin-3a (Sigma) was added to the cells and BRET was measured for another 7 min. Experiments were performed in technical duplicates and three independent times. Non-linear regression and statistical analysis were performed using Prism 10 (GraphPad).
Analogous to the intracellular Cy5-PMIγ/NanoLuc-MDM2 BRET experiment, HEK293 and HEK293_CMKLR1-eYFP cells were seeded and transfected with 0.09 µg Transfection Carrier DNA, 0.01 µg […]
were then incubated with dilutions of unlabeled PMIγ -peptides for 72 h or with Nutlin-3a for 24 h. During the last 30 min of the incubation, HaloTag TMR Ligand (Promega) was added to the cells to fluorescently label the p53-HaloTag fusion proteins in the cells. Cells were then washed thoroughly, incubated for 4 h in full cell culture medium without peptides, and the cell culture medium was then replaced by 50 µl Fluorobrite DMEM with Nano-Glo Live Cell Reagent. After 10 min incubation, luminescence was measured, and BRET ratio was calculated by dividing the TMR-signal (600±50 nm) by the NanoLuc signal (450±20 nm). netBRET was calculated and normalized to cells without peptide (100%) and cells which were not label ed with HaloTag TMR Ligand (0%). Experiments were performed in technical duplicates and at least twice. Non-linear regression and statistical analysis were performed using Prism 10 (GraphPad).

[2] = target: T2, NanoLuc-MDM2 in HEK293 cells (Homo sapiens, UniProt Q00987); assay: Intracellular Cy5-PMIγ/NanoLuc-MDM2 BRET, cells without CMKLR1; format: cell-based; conditions: cells without CMKLR1, 72 h
T2 construct: host or cells: HEK293 and HEK293_CMKLR1-eYFP
T2 sequence (Q00987 whole entry): as above
Procedure: as §1, with “(N3-cC9).” for “(N3-cC9). (E, F) Displacement of PMIγ peptides from MDM2 after 72 h internalization in a kinetic BRET measurement. After 3 min, 10 μM of the small molecule MDM2 antagonist Nutlin-3a was added and the loss of NanoLuc-MDM2/Cy5-PMIγ BRET was observed. Mean (bold line) ± SEM (dotted lines) from three independent experiments is shown.”
HEK293 and stably transfected HEK293_CMKLR1-eYFP cells were seeded at 15,000 cells per well into poly-ᴅ-lysine coated 96-well plates (white Nunc MicroWell, Thermo). […] After 10 min incubation, luminescence was measured in a Spark multimode plate reader (Tecan), and BRET ratio was calculated by […]
dividing the Cy5-signal (670±30 nm) by the NanoLuc signal (450±20 nm). netBRET was calculated by subtracting the BRET ratio from cells which were incubated without peptide. To calculate the CMKLR1-specific effect, ΔBRET was calculated by subtracting the netBRET value obtained in cells without CMKLR1 from netBRET obtained in cells with CMKLR1. After the initial readout, a kinetic BRET displacement was performed with the same cells. […]

| Molecule | intact peptide in cell lysate (HEK293_CMKLR1-eYFP cells) | cleavage site identified by MALDI-ToF-MS (HEK293_CMKLR1-eYFP cells; lysate) | displacement from MDM2 by 10 μM nutlin-3a (kinetic BRET) ([1]; 1 μM extracellular peptide) | BRET between NanoLuc-MDM2 and Cy5-labeled peptide ([1]; 72 h) | receptor-specific BRET under uptake competition [1] | BRET between NanoLuc-MDM2 and Cy5-labeled peptide [2] | incubation time after which a singular cleavage product peak was observed (HEK293_CMKLR1-eYFP cells; RP-HPLC of lysate) | fate of the hsLMWP sequence (HEK293_CMKLR1-eYFP cells; lysate, MALDI-ToF-MS) | loss of BRET after 10 μM nutlin-3a, compared with 2Cy ([1]; 1 μM extracellular peptide, 72 h) | ΔBRET (netBRET with CMKLR1 minus without) ([1]; 24, 48 and 72 h) |
| --- | --- | --- | --- | --- | --- | --- | --- | --- | --- | --- |
| CC(=O)N[C@@H](CCCCn1cc(C[C@H](NC(=O)CCOCCOCCOCCNC(=O)[C@H](CCCNC(N)=O)NC(=O)[C@@H](NC(=O)[C@H](CCC(=O)O)NC(=O)CNC(=O)CNC(=O)[C@@H](CCCNC(=N)N)NC(=O)[C@@H](CC(C)C)NC(=O)[C@@H](CC(C)C)NC(=O)[C@@H](C)NC(=O)[C@@H](CCC(=O)O)NC(=O)[C@@H](Cc2ccccc2)NC(=O)[C@@H](C)NC(=O)[C@@H](CC(C)C)NC(=O)[C@H]2CCCN2C(=O)[C@@H](Cc2c[nH]c3ccccc23)NC(=O)[C@@H](Cc2c[nH]c3ccccc23)NC(=O)[C@@H](CC(=O)O)NC(=O)CCOCCOCCOCCNC(=O)CCCCC[N+]2=C(/C=C/C=C/C=C3N(C)c4ccc(S(=O)(=O)O)cc4C3(C)C)C(C)(C)c3cc(S(=O)(=O)[O-])ccc32)C(C)C)C(N)=O)nn1)C(=O)N[C@@H](Cc1ccc(O)cc1)C(=O)N[C@@H](Cc1ccccc1)C(=O)N1CCC[C@H]1C(=O)N[C@@H]1CCSSC[C@@H](C(=O)O)NC(=O)[C@H](Cc2ccccc2)NC(=O)[C@H](C)NC(=O)[C@H](Cc2ccccc2)NC(=O)[C@H](CCC(N)=O)NC1=O [2Cy] (I: {X2-PEG3}-[dD][dW][dW][dP][dL][dA][dF][dE][dA][dL][dL][dR]GGEV[Cit][PEG3][Pra]-NH2 / II: Ac-[Lys(N3)]YFP[d(hCys)]QFAFC-OH; triazole I:19-II:1; disulfide II:5-II:10) | almost no intact peptide was detected | valine-citrulline linker was quickly cleaved | seen only in CMKLR1-expressing cells | significantly elevated BRET | almost no receptor-specific BRET was detected | only a minor signal |  |  |  |  |
| I: GSVSHHHHHHGGHHHH[PEG3][dK]([PEG3-X1])[dD][dW][dW][dP][dL][dA][dF][dE][dA][dL][dL][dR]GEV[Cit][PEG3][Pra]-NH2 / II: Ac-[Lys(N3)]YFP[d(hCys)]QFAFC-OH (triazole I:36-II:1; disulfide II:5-II:10) [3Cy] | almost no intact peptide was detected | valine-citrulline linker was quickly cleaved | seen only in CMKLR1-expressing cells | significantly elevated BRET | almost no receptor-specific BRET was detected | strong BRET at 10 μM | 1 h | completely removed | larger loss of BRET | slightly higher signal compared to 2Cy |
